These results are taken from patent US9216968B2, “Heterocyclic derivative and pharmaceutical drug” (NIPPON SHINYAKU CO., LTD., priority 2011, dated 2015).

One test concerns the target human mPGES-1 (Homo sapiens (Human), UniProt O14684). In words: mPGES-1 inhibiting activity (microsome fractions, PGE2 by HTRF). In kind it is biochemical. The settings on record: microsomes from CHO-K1 cells transfected with human mPGES-1; PGH2 1 μM, 4° C., 60 seconds; read-out: mPGES-1 Inhibition IC50. A digest of the protocol: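 PGE2 formation read by HTRF after 60 s at 4 °C with 1 μM PGH2 substrate, following 20 min compound preincubation (1% DMSO) with human mPGES-1 microsomes from transfected CHO-K1 cells. Buffer: potassium phosphate, reduced glutathione, pH 7.4; IC50 from activity relative to enzyme-free blank.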
(In general: TR-FRET usually uses a lanthanide donor and a delayed reading to cut background.)

The next test deals with A549 cells. The test is described as follows: Inhibition of PGE2 production in A549 cell (IL-1β stimulated). The class given is cell-based, human. As to conditions: Homo sapiens, A549, 24 h, IL-1β 5 ng/well, PGE2 in culture medium. A digest of the protocol: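 A549 cells preincubated 60 min with compound in RPMI/3% FBS (final DMSO 0.10), then stimulated with IL-1β (5 ng/well) for 24 h at 37 °C. PGE2 measured by HTRF and PGF2α by EIA in medium; IC50 from inhibition relative to stimulated minus unstimulated production.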

Each structure is given as a SMILES string. Where a name gives a salt, the structure may show the parent alone.

Chain of human mPGES-1 (O14684 whole entry): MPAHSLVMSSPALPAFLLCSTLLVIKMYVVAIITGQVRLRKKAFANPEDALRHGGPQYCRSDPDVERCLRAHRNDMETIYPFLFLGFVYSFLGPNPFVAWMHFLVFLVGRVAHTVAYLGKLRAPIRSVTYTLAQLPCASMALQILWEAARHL

Usually IC50 stands for the point on the concentration scale where inhibition reaches its midpoint. Turning to `COCc1nc2c(C(=O)Nc3cccc(Cl)c3C)cc(NC(=O)c3cc(C(F)(F)F)ccc3C(F)(F)F)cc2[nH]1` [Example 110, 6-({[2,5-Bis(trifluoromethyl)phenyl]carbonyl}amino)-N-(3-chloro-2-methylphenyl)-2-(methoxymethyl)-1H-benzimidazole-4-carboxamide hydrochloride], the IC50 at human mPGES-1 was determined as 2.6 nM; in the test with A549 cells, 35.5 nM.

As for `Cc1c(Cl)cccc1NC(=O)c1cc(NC(=O)c2ccccc2C(F)(F)F)cc2[nH]c([C@H]3CCC(=O)N3)nc12` [Example 131, N-(3-Chloro-2-methylphenyl)-2-[(2R)-5-oxopyrrolidin-2-yl]-6-({[2-(trifluoromethyl)phenyl]carbonyl}amino)-1H-benzimidazole-4-carboxamide hydrochloride], the figures for the IC50 on human mPGES-1 and in the test on A549 cells were 32.8 nM and greater than 10000 nM, respectively.

Take `Cc1c(Cl)cccc1NC(=O)c1cc(NC(=O)c2ccccc2C(F)(F)F)cc2[nH]c(C(C)(C)CCl)nc12` [Example 57, N-(3-Chloro-2-methylphenyl)-2-(1-chloro-2-methylpropan-2-yl)-6-({[2-(trifluoromethyl)phenyl]carbonyl}amino)-1H-benzimidazole-4-carboxamide]: the IC50 was 0.5 nM on human mPGES-1 and 16.8 nM with A549 cells.

For `Cc1c(Cl)cccc1NC(=O)c1cc(NC(=O)c2ccccc2C(F)(F)F)cc2[nH]c(NCC(C)(C)CO)nc12` [Example 158, N-(3-Chloro-2-methylphenyl)-2-[(3-hydroxy-2,2-dimethylpropyl)amino]-6-({[2-(trifluoromethyl)phenyl]carbonyl}amino)-1H-benzimidazole-4-carboxamide hydrochloride], the IC50 amounted to 8.5 nM at human mPGES-1 and 82.2 nM with A549 cells.

Consider `COCc1nc2c(C(=O)Nc3ccc(C(C)(C)C)cc3)cc(NC(=O)c3ccccc3C(F)(F)F)cc2[nH]1` [Example 27, N-(4-tert-Butylphenyl)-2-(methoxymethyl)-6-({[2-(trifluoromethyl)phenyl]carbonyl}amino)-1H-benzimidazole-4-carboxamide hydrochloride], for which the IC50 on human mPGES-1 is 2.4 nM; in the test on A549 cells, 16 nM.

As for `Cc1c(Cl)cccc1NC(=O)c1cc(NC(=O)c2ccccc2C(F)(F)F)cc2[nH]c(C3(C(F)(F)F)CC3)nc12` [Example 89, N-(3-Chloro-2-methylphenyl)-2-[1-(trifluoromethyl)cyclopropyl]-6-({[2-(trifluoromethyl)phenyl]carbonyl}amino)-1H-benzimidazole-4-carboxamide], the IC50 at human mPGES-1 came to 1.2 nM; in the test on A549 cells it was 2.1 nM.

Turning to `Cc1c(Cl)cccc1NC(=O)c1cc(NC(=O)c2ccccc2C(F)(F)F)cc2[nH]c(NCCN(C(C)C)C(C)C)nc12` [Example 155, N-(3-Chloro-2-methylphenyl)-2-{[2-(dipropan-2-ylamino)ethyl]amino}-6-({[2-(trifluoromethyl)phenyl]carbonyl}amino)-1H-benzimidazole-4-carboxamide hydrochloride], the figures for the IC50 at human mPGES-1 and in the test on A549 cells were 101 nM and 209 nM, respectively.

Consider `Cc1c(Cl)cccc1NC(=O)c1cc(NC(=O)c2c(F)cccc2Cl)cc2[nH]c(N(C)C)nc12` [Example 182, 6-{[(2-Chloro-6-fluorophenyl)carbonyl]amino}-N-(3-chloro-2-methylphenyl)-2-(dimethylamino)-1H-benzimidazole-4-carboxamide hydrochloride], for which the figures for the IC50 at human mPGES-1 and with A549 cells were 1.6 nM and 38.4 nM, respectively.

For the compound `Cc1c(Cl)cccc1NC(=O)c1cc(NC(=O)c2c(F)cccc2Cl)cc2[nH]c(NCCOC(C)C)nc12` [Example 194, 6-{[(2-Chloro-6-fluorophenyl)carbonyl]amino}-N-(3-chloro-2-methylphenyl)-2-{[2-(propan-2-yloxy)ethyl]amino}-1H-benzimidazole-4-carboxamide hydrochloride], the figures for the IC50 at human mPGES-1 and in the test on A549 cells were 0.4 nM and 33.8 nM, respectively.

Take `CCOCCOc1ccc(Cl)c(C(=O)Nc2cc(C(=O)Nc3cccc(Cl)c3C)c3nc(COC)[nH]c3c2)c1` [Example 115, 6-({[2-Chloro-5-(2-ethoxyethoxy)phenyl]carbonyl}amino)-N-(3-chloro-2-methylphenyl)-2-(methoxymethyl)-1H-benzimidazole-4-carboxamide hydrochloride]: the results for the IC50 at human mPGES-1 and in the test with A549 cells were 11.5 nM and 37 nM, respectively.

Regarding `Cc1nc2c(C(=O)NCc3ccccc3C(F)(F)F)cc(NC(=O)c3ccccc3C(F)(F)F)cc2[nH]1` [Example 12, 2-Methyl-N-[2-(trifluoromethyl)benzyl]-6-({[2-(trifluoromethyl)phenyl]carbonyl}amino)-1H-benzimidazole-4-carboxamide hydrochloride], the figures for the IC50 on human mPGES-1 and in the test on A549 cells were 7.1 nM and 41 nM, respectively.

With `COCc1nc2c(C(=O)Nc3cccc(Cl)c3C)cc(NC(=O)c3ccc(F)cc3Cl)cc2[nH]1` [Example 93, 6-{[(2-Chloro-4-fluorophenyl)carbonyl]amino}-N-(3-chloro-2-methylphenyl)-2-methoxymethyl-1H-benzimidazole-4-carboxamide hydrochloride], the values for the IC50 on human mPGES-1 and in the test on A549 cells were 4.2 nM and 154 nM, respectively.

As for `COCc1nc2c(C(=O)Nc3cccc(Cl)c3C)cc(NC(=O)c3ncccc3F)cc2[nH]1` [Example 244, N-(3-Chloro-2-methylphenyl)-6-{[(3-fluoropyridin-2-yl)carbonyl]amino}-2-(methoxymethyl)-1H-benzimidazole-4-carboxamide hydrochloride], the IC50 at human mPGES-1 was found to be 56.2 nM; in the test with A549 cells it was 104 nM.

As for `Cc1c(Cl)cccc1NC(=O)c1cc(NC(=O)c2ccccc2C(F)(F)F)cc2[nH]c([C@@H]3CCCN3C(=O)OC(C)(C)C)nc12` [Example 69, tert-Butyl (2S)-2-{4-[(3-chloro-2-methylphenyl)carbamoyl]-6-({[2-(trifluoromethyl)phenyl]carbonyl}amino)-1H-benzimidazol-2-yl}pyrrolidine 1-carboxylate], the figures for the IC50 on human mPGES-1 and in the test with A549 cells were 10 nM and 21.6 nM, respectively.

On to `Cc1c(Cl)cccc1NC(=O)c1cc(NC(=O)c2c(F)cccc2Cl)cc2[nH]c(C3CCCC3)nc12` [Example 126, 6-{[(2-Chloro-6-fluorophenyl)carbonyl]amino}-N-(3-chloro-2-methylphenyl)-2-cyclopentyl-1H-benzimidazole-4-carboxamide hydrochloride], for which the IC50 on human mPGES-1 worked out at 5.6 nM; in the test with A549 cells it was 13.1 nM.

As to `CCOCc1nc2c(C(=O)NCc3ncccc3C(F)(F)F)cc(NC(=O)c3ccccc3C(F)(F)F)cc2[nH]1` [Example 80, 2-(Ethoxymethyl)-6-({[2-(trifluoromethyl)phenyl]carbonyl}amino)-N-{[3-(trifluoromethyl)pyridin-2-yl]methyl}-1H-benzimidazole-4-carboxamide dihydrochloride], the IC50 turned out to be 29.4 nM at human mPGES-1 and 1250 nM in the test on A549 cells.

On to `COCc1nc2c(C(=O)Nc3cccc(Cl)c3C)cc(NC(=O)c3cc(CCc4ccccc4)ccc3Cl)cc2[nH]1` [Example 123, N-(3-Chloro-2-methylphenyl)-6-({[2-chloro-5-(2-phenylethyl)phenyl]carbonyl}amino)-2-(methoxymethyl)-1H-benzimidazole-4-carboxamide hydrochloride], for which the IC50 at human mPGES-1 worked out at 8.7 nM; in the test with A549 cells, 99.8 nM.

Turning to `Cc1c(Cl)cccc1NC(=O)c1cc(NC(=O)c2ccccc2C(F)(F)F)cc2[nH]c(N[C@H](CO)C(C)(C)C)nc12` [Example 172, N-(3-Chloro-2-methylphenyl)-2-{[(2S)-1-hydroxy-3,3-dimethylbutan-2-yl]amino}-6-({[2-(trifluoromethyl)phenyl]carbonyl}amino)-1H-benzimidazole-4-carboxamide hydrochloride], the 50% inhibitory concentration (IC50) on human mPGES-1 turned out to be 4.5 nM; with A549 cells, 134 nM.

Consider `CCc1nc2c(C(=O)NC3CCCCC3)cc(NC(=O)c3ccccc3C(F)(F)F)cc2[nH]1` [Example 18, N-Cyclohexyl-2-ethyl-6-({[2-(trifluoromethyl)phenyl]carbonyl}amino)-1H-benzimidazole-4-carboxamide], for which the IC50 at human mPGES-1 is 21.6 nM; in the test on A549 cells, 110 nM.

Regarding `Cc1c(Cl)cccc1NC(=O)c1cc(NC(=O)c2ccccc2C(F)(F)F)cc2[nH]c(NCC(C)(C)C)nc12` [Example 140, N-(3-Chloro-2-methylphenyl)-2-[(2,2-dimethylpropyl)amino]-6-({[2-(trifluoromethyl)phenyl]carbonyl}amino)-1H-benzimidazole-4-carboxamide hydrochloride], the IC50 at human mPGES-1 worked out at 0.2 nM; in the test on A549 cells it was 33 nM.

`Cc1c(Cl)cccc1NC(=O)c1cc(NC(=O)c2ccccc2C(F)(F)F)cc2[nH]c(NCCN(C)C)nc12` [Example 147, N-(3-Chloro-2-methylphenyl)-2-{[2-(dimethylamino)ethyl]amino}-6-({[2-(trifluoromethyl)phenyl]carbonyl}amino)-1H-benzimidazole-4-carboxamide hydrochloride]: the IC50 stood at 15.8 nM at human mPGES-1 and 186 nM in the test on A549 cells.

Consider `Cc1c(Cl)cccc1NC(=O)c1cc(NC(=O)c2ccccc2C(F)(F)F)cc2[nH]c(Cl)nc12` [Example 135, 2-Chloro-N-(3-chloro-2-methylphenyl)-6-({[2-(trifluoromethyl)phenyl]carbonyl}amino)-1H-benzimidazole-4-carboxamide], for which the IC50 was determined as 0.3 nM at human mPGES-1 and 87.3 nM in the test on A549 cells.

Consider `Cc1c(Cl)cccc1NC(=O)c1cc(NC(=O)c2ccccc2C(F)(F)F)cc2[nH]cnc12` [Example 3, N-(3-Chloro-2-methylphenyl)-6-({[2-(trifluoromethyl)phenyl]carbonyl}mino)-1H-benzimidazole-4-carboxamide], for which the IC50 amounted to 1.5 nM on human mPGES-1 and 24.6 nM with A549 cells.
